Molecules are shown by their SMILES. ≈ marks a conversion by molar mass, not a printed value. Where “and” joins values, the source holds several entries; their conditions need not be identical. Identical values can stand only once. Like-named read-outs stand apart in the source and are kept apart here. Where only a bound is given, the exact number is not on record here.

Broadly, the solubility is the concentration that dissolves in the medium under given conditions. Broadly, the IC50 is the point on the concentration scale where inhibition reaches its midpoint.

For series [1], the system named is A549 xenograft tumor model. Kind of series: In vivo antitumor efficacy in A549 xenograft tumor model. The arrangement: species or system female athymic nude mice. The settings on record: PEG-b-PLA micelles, 20 mg/kg, weekly tail vein injection, 3 weekly injections and one week off x 3 cycles.
Experimental: All animal experiments were conducted under the protocol approved by Institutional Animal Care and Use Committee in University of Wisconsin-Madison in accordance with institutional and NIH guidance for the Care and Use of Laboratory Animals. 6-8 week-old female athymic nude mice (20-25 g each) were acquired from laboratory animal resources at School of Medicine and Public Health, University of Wisconsin-Madison. Mice were housed in ventilated cages with free access to water and food and acclimated for 1 week prior tumor cell injection. A549 cells (2×10^6 cells in 100 μL of serum-free RPMI 1640 medium) were harvested from sub-confluent cultures after trypsinization and were injected subcutaneously into the right flank of each mouse. […] Drug conjugates were administered via tail vein for 3 weekly injections, followed by 1-week rest period, totaling 3 cycles over a 12 weeks period. Body weight and tumor volume were monitored over the course of study. Tumor volume was calculated using the formula: V=(a×b^2)/2, where V is tumor volume, a is tumor length, b is tumor width.
The nature of series [2]: Hydrodynamic diameter of PEG-b-PLA micelles by dynamic light scattering. It is filed as physicochemical. As for the experimental part: Proton nuclear magnetic resonance (^1H NMR) data were recorded on a Varian Unity-Inova two-channel 400 MHz NMR spectrometer (Palo Alto, Calif.) with regulated temperature at 25° C. Chemical shifts (δ) were reported in parts per million (ppm) relative to residual protonated solvent resonance at 7.26 ppm for CDCl3. Mass spectrometry data was obtained using the Waters LCT (ESI-TOF) in the Chemical Instrumentation Center in the Department of Chemistry, University of Wisconsin-Madison. Samples were sprayed from a 10 mM NH4OAc/CH3CN solution. Reverse-phase HPLC (RP-HPLC) analysis was carried out using a Shimadzu Prominence HPLC system (Shimadzu, Japan) equipped with an LC-20AT pump, a SIL-20AC HT autosampler, a CTO-20AC column oven, and a SPD-M20A diode array detector. Sample was separated by a Waters Symmetry Shield™ RP18 column (4.6 mm×250 mm, 5 μm, 100 Å). 10 μL of sample was injected at a flow rate of 0.8 mL/min, column temperature at 25° C., and UV detection wavelength at 227 nm. The separation of o(LA)n-PTX conversion products was done in gradient mode with organic phase containing 100% CH3CN as solvent A, and aqueous phase containing 100% milliQ water as solvent B. Gradient elution was employed as follows: 0 min, 50% solvent A and 50% solvent B; 35 min, 95% solvent A and 5% solvent B; and 40 min for equilibration. Hydrodynamic diameters of PEG-b-PLA micelles were measured by dynamic light scattering (DLS) using a Zetasizer Nano-ZS (Malvern Instruments Inc., UK) at 25° C. with a detection angle of […] and a He—Ne ion laser as the light source (4 mW, 633 nm). Prior to measurements, PEG-b-PLA micelle solutions were diluted with milliQ water or PBS (10 mM, pH 7.4) to afford the level of PEG-b-PLA at ˜0.1 mg/mL and 1 mL of each sample was placed into a disposable sizing cuvette (BRAND Polystyrene Cuvettes). The cumulant method was used to curve-fit the correlation function, and the z-average diameter and polydispersity index (PDI) of PEG-b-PLA micelles were calculated from the Stokes-Einstein equation and the slope of the correlation function, respectively. All measurements were performed in triplicate.

The nature of series [3]: Drug loading efficiency, drug loading content and aqueous solubility of PEG-b-PLA micelles by RP-HPLC. It is filed as physicochemical. As for the experimental part:
The polymeric film was dissolved by addition of sterile water or PBS (10 mM, pH 7.4), followed by centrifugation for 5 min at 13,000 rpm and sterile filtration (0.22 μm (Coring, N.Y.)).

Series [4] in a line: Physical stability of drug- or conjugate-loaded PEG-b-PLA micelles (precipitation). The settings on record: for Stability: PEG-b-PLA micelles; for time until SEL precipitated out of PEG-b-PLA micelles: micelles containing unconjugated SEL alone. As to the method:
Instead, loading efficiency of PTX was low, ca. 21%, and drug loading for PEG-b-PLA micelles leveled off at 11.2% drug loading.
SEL drug loading for PEG-b-PLA micelles was 1% with a very low drug loading efficiency of 5%. […] In contrast, the PEG-b-PLA micelles containing unconjugated SEL were unstable and SEL precipitated out within about 5 minutes.

For series [5], the system named is human A549 non-small lung cancer cells. Description: In vitro cytotoxicity, CellTiter-Blue Cell Viability Assay. It is filed as cell-based. As to conditions: free form, 72 h. For orientation: Alamar Blue is a resazurin reagent that responds to reducing activity.
Text: All chemicals were purchased from Sigma-Aldrich (St. Louis, Mo.) and used as received. Analytical grade organic solvents and all other reagents were purchased from Fisher Scientific (Pittsburgh, Pa.). PTX was purchased from LC Laboratories (Woburn, Mass.). PEG-b-PLA was purchased from Advanced Polymer Materials Inc. (Montreal, Canada): Mn of PEG and PLA was 4,000 and 2,200 g/mol, respectively; PDI 1.05. A549 human lung adenocarcinoma cells were purchased from ATCC (Manassas, Va.) and grown in RPMI 1640 medium supplemented with 10% fetal bovine serum (FBS), 100 IU/mL penicillin, 100 μg/mL streptomycin, and 2 mML-glutamine in 5% CO2 incubator at 37° C.
Each was added into the wells to attain a final concentrations of 0.1, 1, 10, 100, and 1000 nM. The final level of DMSO in the medium was <0.1% at all drug levels. Cells cultured with diluted DMSO or PBS in medium were used as controls. […] The medium in each well was aspirated, and 100 μL of 20% (v/v) CellTiter-Blue reagent in serum free RPMI medium was added, followed by incubation at 37° C. in 5% CO2 atmosphere for 1.5 h. Fluorescence intensity was measured by a SpectraMax M2 plate reader (Molecular Devices, CA) with excitation and emission at 560 and 590 nm, respectively. The half maximal inhibitory drug concentration (IC50) was determined by using GraphPad Prism version 5.00 for Windows (GraphPad Software, CA).
Series [6] concerns A549 NSCLC cell line. Description: IC50 values and combination index analysis of PTX, SEL and RAP alone and in combination. It is filed as cell-based, human. The settings on record: alone or combination at molar ratio PTX:SEL 2:3, PTX:RAP 2:1, SEL:RAP 3:1, PTX:SEL:RAP 2:3:1. As to the method: The cells were seeded into a 96-well plate at a seeding density of 1,500 cells/100 μL/well and cultured in RPMI 1640 medium at 37° C. in 5% CO2 incubator for 24 h. […] Each was added into the wells to attain a final concentrations of 0.1, 1, 10, 100, and 1000 nM. The final level of DMSO in the medium was <0.1% at all drug levels. Cells cultured with diluted DMSO or PBS in medium were used as controls. Drug treated cells were placed in an incubator at 5% CO2 at 37° C. for 72 h. The medium in each well was aspirated, and 100 μL of 20% (v/v) CellTiter-Blue reagent in serum free RPMI medium was added, followed by incubation at 37° C. in 5% CO2 atmosphere for 1.5 h. Fluorescence intensity was measured by a SpectraMax M2 plate reader (Molecular Devices, CA) with excitation and emission at 560 and 590 nm, respectively. The half maximal inhibitory drug concentration (IC50) was determined by using GraphPad Prism version 5.00 for Windows (GraphPad Software, CA).
In vitro anticancer activity of PTX, SEL, and RAP alone and in combination.

Series [7] in a line: In vitro release from PEG-b-PLA micelles (dialysis cassette). It is filed as physicochemical. As to the method:
Four dialysis cassettes were placed in 4 L PBS solution (10 mM, pH 7.4) on a Corning Hotplate Stirrer (Corning, N.Y.) at 37° C. […] At each time point, a sample of 100 μL was withdrawn, and the cassettes were replenished with 100 μL of fresh PBS solution (10 mM, pH 7.4). The external medium was replaced with 4 L of fresh buffer at 2, 4, 8, 12, 24 and 48 h to approximate sink conditions.

Setting [8] is: Table 1A, PEG-b-PLA micelles, drug to polymer ratio 1:10, initial level 1 mg, mean ± SD, n = 3.
Setting [9] is: Table 2, PTX, SEL and RAP co-loaded as 3-in-1 micelle, initial level 1, 1.5, 0.5 mg, molar ratio 2:6:1, 21 mg PEG4000-b-PLA2200.
The mark [10] stands for this setting: Table 1B, drug to polymer ratio 1:1.
Setting [11] is: Table 1B, drug to polymer ratio 1:5.
The mark [12] stands for this setting: Table 1B, drug to polymer ratio 1:10.
[13] abbreviates: Table 1B, PEG-b-PLA micelles, drug to polymer ratio 1:1.
The mark [14] stands for this setting: Table 1B, PEG-b-PLA micelles, drug to polymer ratio 1:5.
[15] abbreviates: Table 1B, PEG-b-PLA micelles, drug to polymer ratio 1:10.
Setting [16] is: Table 1C, drug to polymer ratio 1:5.
Where [17] appears, read: Table 1C, PEG-b-PLA micelles, drug to polymer ratio 1:5.

As to `CC(=O)O[C@H]1C(=O)[C@@]2(C)[C@H]([C@H](OC(=O)c3ccccc3)[C@]3(O)C[C@H](OC(=O)[C@H](O)[C@@H](NC(=O)c4ccccc4)c4ccccc4)C(C)=C1C3(C)C)[C@]1(OC(C)=O)CO[C@@H]1C[C@@H]2O` [PTX, paclitaxel], the “tumor growth / tumor volume” value in series [1] was “tumor growth inhibition during treatment over 71 days and delayed tumor growth”. Moreover, the “Particle size” value in series [2] (Table 1A, drug to polymer ratio 1:10, initial level 1 mg, 10 mg PEG-b-PLA, mean ± SD, n = 3) was 30.5 nm and 30.5 ± 0.3 nm; in series [2] (Table 1A, drug to polymer ratio 3:5, initial level 6 mg, 10 mg PEG-b-PLA, mean ± SD, n = 3), 37.0 ± 5.7 nm. Further, the solubility was 900 µg/mL in series [3] (PEG-b-PLA micelles in water, aqueous with cosolvent or surfactant or cyclodextrin, Table 1A, PEG-b-PLA micelles, drug to polymer ratio 1:10, initial level 1 mg, mean ± SD, n = 3, read-out: Apparent solubility); 1200 ± 100 µg/mL in series [3] (PEG-b-PLA micelles in water, aqueous with cosolvent or surfactant or cyclodextrin, Table 1A, PEG-b-PLA micelles, drug to polymer ratio 3:5, initial level 6 mg, mean ± SD, n = 3, read-out: Apparent solubility); ~10 µg/mL (≈ 11.7 µM) in series [3] (water, PTX without PEG-b-PLA micelles, read-out: water solubility). Further, the Drug loading in series [3] (setting [8]) was 8.6% and 8.6 ± 1.1%; in series [3] (Table 1A, PEG-b-PLA micelles, drug to polymer ratio 3:5, initial level 6 mg, mean ± SD, n = 3) it was 11.2% and 11.2 ± 1.1%; in series [3] (setting [9]), 4.3%. Besides, the Drug loading efficiency in series [3] (setting [8]) is recorded as 93.8 ± 12.8%. For the same compound, the Loading efficiency in series [3] (setting [9]) is 100% and 104%. In series [4] (PEG-b-PLA micelles at room temperature), the “micelles precipitating in” value is recorded as “less than 2 hours”. Besides, the IC50 in series [5] was determined as 2 nM; in series [6], 7.4 ± 1.2 nM. For the same compound, in series [7] (9% drug loading, particle size 30 nm, PEG-b-PLA micelles), the “precipitation of PTX during in vitro release” value is < 4 h. Moreover, the “in vitro release from PEG-b-PLA micelles (in words)” value in series [7] (PBS 10 mM, pH 7.4, 37° C., FIG. 4) is recorded as “rapidly released”.
On to `CO[C@H]1C[C@@H]2CC[C@@H](C)[C@@](O)(O2)C(=O)C(=O)N2CCCC[C@H]2C(=O)O[C@H]([C@H](C)C[C@@H]2CC[C@@H](O)[C@H](OC)C2)CC(=O)[C@H](C)/C=C(\C)[C@@H](O)[C@@H](OC)C(=O)[C@H](C)C[C@H](C)/C=C/C=C/C=C/1C` [RAP, rapamycin], for which the Particle size in series [2] (setting [10]) is recorded as 59.5 ± 21.6 nm; in series [2] (setting [11]) it was 36.2 ± 0.4 nm; in series [2] (setting [12]), 37.7 ± 1.9 nm. Besides, the solubility amounted to 500 µg/mL in series [3] (PEG-b-PLA micelles, aqueous with cosolvent or surfactant or cyclodextrin, Table 1B, PEG-b-PLA micelles, drug to polymer ratio 1:1, read-out: Apparent solubility); 900 µg/mL in series [3] (PEG-b-PLA micelles, aqueous with cosolvent or surfactant or cyclodextrin, Table 1B, PEG-b-PLA micelles, drug to polymer ratio 1:5, read-out: Apparent solubility); 1400 µg/mL in series [3] (PEG-b-PLA micelles, aqueous with cosolvent or surfactant or cyclodextrin, Table 1B, PEG-b-PLA micelles, drug to polymer ratio 1:10, read-out: Apparent solubility). The Drug loading is 11.5% in series [3] (setting [13]), 7.3% in series [3] (setting [14]), 6.4% in series [3] (setting [15]) and 2.2% in series [3] (setting [9]). Besides, the Drug loading efficiency in series [3] (setting [13]) amounted to 23%; in series [3] (setting [14]), 44.0%; in series [3] (setting [15]), 70.1%. In series [3] (setting [9]), the Loading efficiency is 100% and 104.6%. Also, the Stability in series [4] (setting [10]), in series [4] (setting [11]) and in series [4] (setting [12]) was <24 h each time. Further, the “micelles released drug in” value in series [4] (all PEG-b-PLA micelles containing unconjugated RAP) is given as “less than 24 hours”. Besides, in series [6], the IC50 was determined as 320.6 ± 2.3 nM.
As to `Cn1cnc2c(F)c(Nc3ccc(Br)cc3Cl)c(C(=O)NOCCO)cc21` [SEL, selumetinib], the Particle size in series [2] (setting [16]) is 60.6 ± 0.6 nm. Besides, the “drug loading, loaded in micelles with free paclitaxel and free rapamycin” value in series [3] (3-drug co-loading) is “greater than 6 wt %”. Besides, in series [3] (setting [17]), the Drug loading turned out to be 1%; the Drug loading efficiency was 5% and 5.1%. Besides, in series [3] (setting [9]), the Drug loading turned out to be 6.3%; the Loading efficiency is 100% and 101.7%. Moreover, in series [3] (aqueous with cosolvent or surfactant or cyclodextrin, Table 1C, PEG-b-PLA micelles, drug to polymer ratio 1:5, read-out: Apparent solubility), the solubility came out at 100 µg/mL. Moreover, the “drug loading, loaded alone in micelles” value in series [3] (free selumetinib alone) is “about 1 wt %”. Moreover, the Stability in series [4] (setting [16]) is on record as <2 h. Further, the “time until SEL precipitated out of PEG-b-PLA micelles” value in series [4] is ≤ 5 min. Moreover, the “time until SEL precipitated out of PEG-b-PLA micelles” value in series [4] (listed as selumetinib) is “about 5 minutes”. In series [6], the 50% inhibitory concentration (IC50) was 1729 ± 1.6 nM.
